Test system: NFE2L1 pathway (DDI2-dependent) in HCT116 cells
Experiment: 3×PSMA4-ARE-LUC reporter in HCT116 WT and DDI2 knockout cells
Format: cell-based, human
Description: Fig. 1 (A) Targeted library screening of RUN compounds using the 3×PSMA4-ARE-LUC dual reporter assay in HEK293 cells. Cells were exposed to RUN compounds (5 μM) for 16 hours, and luciferase activity was measured. Data are presented as the mean ± SD from three independent experiments (n = 3). Results are shown as a fold change in luminescence relative to DMSO-treated cells. Selected hit compounds are highlighted in distinct colours. (B) RUN-89 specifically activates the NFE2L1 pathway. The DDI2 knockout (KO) and parental (WT) HCT116 cells were transfected with the 3×PSMA4-ARE-LUC reporter and treated with 0.5 μM bortezomib (BTZ) and 5 μM RUN-89 for 16 hours. Data are presented as the Geomean ± GeoSD of three independent experiments (n = 3). Statistical analysis was performed on log2-transformed values using two-way repeated-measures ANOVA followed by Šídak's multiple comparison test. (C) RUN-89 selectively triggers downstream signaling events associated with NFE2L1 gene expression. HEK293 cells were transfected with lipid nanoparticles (LNPs) carrying siRNAs targeting NFE2L1 or NFE2L2. LNPs formulated with non-targeting siRNA served as a negative control. Following 24 hours of incubation, cells were treated with 7.5 μM RUN-89 or DMSO (vehicle) for an additional 16 hours. Expression of the proteasomal subunit gene PSMC4 was then quantified by RT-qPCR. Data are shown as the Geomean ± GeoSD from three independent biological replicates (n = 3). Log2-transformed data were analyzed using two-way repeated-measures ANOVA with the Geisser–Greenhouse correction, followed by Tukey's multiple comparison test with individual variances computed for each comparison. Additional results for NFE2L1, NFE2L2, PSMB7, and PSMD12 are presented in SI Fig. S10.
To clarify whether the representative compound RUN-89 activates the NFE2L1-specific luciferase reporter independently of the KEAP1–NFE2L2 pathway, we used the 3×PSMA4-ARE-LUC dual reporter in previously published DDI2 knockout HCT116 cells (from ATCC CCL-247 (RRID:CVCL_0291)), in which the protease essential for NFE2L1 activation is disrupted. […] These findings indicate that RUN-89 activates the reporter construct through NFE2L1.
2 Biology Experimental Procedures […]
Cell lines were sourced from the ATCC (USA) and/or ECACC (UK), namely HCT116 (human colorectal carcinoma), ATCC CCL-247 (RRID:CVCL_0291), HEK-293 (human embryonic kidney), ATCC CRL-1573 (RRID:CVCL_0045), SH-SY5Y (human neuroblastoma), ATCC CRL-2266 (RRID:CVCL_0019). The characteristics of DDI2 knockout cells derived from HCT116 cells have been described previously (Sedlacek et al., 2025). All cell lines were tested for mycoplasma contamination. Most of the cell lines were cultured in Dulbecco's Modified Eagle Medium (DMEM) enriched with 10% fetal bovine serum (FBS) and 2 mM L-glutamine, under standard conditions of 37 °C with 5% CO₂. DNA transfection was performed with Lipofectamine 2000, following the manufacturer's instructions. […]
alamarBlue assay according to the standard protocol.(1)
2.3 Dual luciferase phenotypic assays
HEK293-derived cells stably expressing the 3×PSMA4-ARE-Luc reporter were maintained at low to mid passage numbers before use. For each experiment, cells were transiently transfected with the pRL-TK Renilla luciferase plasmid using Lipofectamine 2000.
Approximately 5–6 hours post-transfection, cells were seeded into plate format according to the experiment (384-well plate mostly). On the following day, cells were treated with the indicated test compounds or DMSO vehicle control for 16 hours (unless otherwise specified).
After treatment, cells were lysed and luciferase activities were quantified using the Dual-Luciferase® Reporter Assay System according to the manufacturer’s instructions and established protocols.(2, 3) For assays using the CMV-XBP-Gluc construct encoding Gaussia […]

COc1ccc(/C=C2\CC(NC(=O)C3CCCC3)C/C(=C\c3ccc(OC)c(OC)c3)C2=O)cc1OC (stereo not shown) [RUN-89]
Mean log2-transformed reporter fold change, HCT116 KO 04 (DDI2-/- clone KO 04, 0.5 μM BTZ or 5 μM RUN-89, 16 h, DMSO = 0): 0.09237
Mean log2-transformed reporter fold change, HCT116 KO 11 (DDI2-/- clone KO 11, 0.5 μM BTZ or 5 μM RUN-89, 16 h, DMSO = 0): 0.4773
Reporter activity in DDI2-deficient cells (DDI2 knockout HCT116, in contrast to wild-type cells): neither the proteasome inhibitor bortezomib nor RUN-89 induced reporter activity
Mean log2-transformed reporter fold change, HCT116 WT (WT (DDI2+/+), 0.5 μM BTZ or 5 μM RUN-89, 16 h, DMSO = 0): 1.7
